Data taken from ChEMBL document CHEMBL3091346, “Structure-activity relationship studies of thalidomide analogs with a taxol-like mode of action” (Bioorg Med Chem Lett, 2013).
Active and inactive are the calls of the source. The rule behind the calls is not given here.

How the values were obtained:
MDA-MB-231 = assay: Antiproliferative activity against human MDA-MB-231 cells assessed as growth inhibition by MTS assay; type: functional, cell-based
DU-145 = assay: Antiproliferative activity against human DU145 cells assessed as growth inhibition by MTS assay; type: functional, cell-based
PC-3 [1] = assay: Antiproliferative activity against human PC3 cells assessed as growth inhibition by MTS assay; type: functional, cell-based
PC-3 [2] = assay: Antiproliferative activity against human PC3 cells assessed as growth inhibition at 30 uM by MTS assay; type: functional; details: read-out: GI
Tubulin (Sus scrofa) [3] = target: T1, Tubulin (Sus scrofa) (UniProt P02554+P02550); assay: Induction of purified porcine brain tubulin polymerization at 50 uM by spectrophotometric analysis
Tubulin (Sus scrofa) [4] = target: T1, Tubulin (Sus scrofa); assay: Induction of purified porcine brain tubulin polymerization assessed as microtubule-stabilization at 50 uM by spectrophotometric analysis

T1 sequence (P02550 whole entry, looked up): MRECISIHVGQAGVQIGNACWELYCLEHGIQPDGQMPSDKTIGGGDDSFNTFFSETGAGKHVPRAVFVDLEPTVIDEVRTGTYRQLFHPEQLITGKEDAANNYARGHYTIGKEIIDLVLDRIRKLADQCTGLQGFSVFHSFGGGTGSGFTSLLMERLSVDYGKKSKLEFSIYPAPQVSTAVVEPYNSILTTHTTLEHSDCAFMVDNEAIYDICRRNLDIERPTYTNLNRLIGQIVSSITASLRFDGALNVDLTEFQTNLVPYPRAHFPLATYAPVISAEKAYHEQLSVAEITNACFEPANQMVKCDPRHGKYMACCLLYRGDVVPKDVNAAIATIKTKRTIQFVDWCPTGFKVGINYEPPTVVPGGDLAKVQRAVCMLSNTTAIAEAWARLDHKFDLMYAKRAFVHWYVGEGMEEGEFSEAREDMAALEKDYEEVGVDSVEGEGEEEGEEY
T1 sequence (P02554 whole entry, looked up): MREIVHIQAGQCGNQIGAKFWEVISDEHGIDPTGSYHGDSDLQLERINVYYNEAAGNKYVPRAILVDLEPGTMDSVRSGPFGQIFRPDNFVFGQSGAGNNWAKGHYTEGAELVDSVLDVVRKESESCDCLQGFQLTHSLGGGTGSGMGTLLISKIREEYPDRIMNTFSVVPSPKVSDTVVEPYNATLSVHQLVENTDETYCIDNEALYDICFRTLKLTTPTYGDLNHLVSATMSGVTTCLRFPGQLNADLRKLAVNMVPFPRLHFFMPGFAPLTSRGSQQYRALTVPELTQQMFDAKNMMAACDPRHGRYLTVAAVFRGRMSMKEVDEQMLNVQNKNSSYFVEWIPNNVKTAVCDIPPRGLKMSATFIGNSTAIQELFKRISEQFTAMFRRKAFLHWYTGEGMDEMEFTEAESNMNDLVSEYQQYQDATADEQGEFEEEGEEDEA

Row | IC50 (MDA-MB-231) | IC50 (DU-145) | IC50 (PC-3 [1]) | Activity (Tubulin (Sus scrofa) [3]) | Activity (Tubulin (Sus scrofa) [4]) | Structure (SMILES) | inhibition of growth at 30 µM (PC-3 [2])
1 | 10.6 µM | 14.1 µM | 5.52 µM | – | – | CC(C)c1cccc(C(C)C)c1N1C(=O)c2ccc(Cl)cc2C1=O | –
2 | 7.24 µM | 8.14 µM | 6.26 µM | – | – | CC(C)c1cccc(C(C)C)c1N1C(=O)c2cccc(N)c2C1=O | –
3 | – | – | – | – | – | O=C1c2ccccc2C(=O)N1c1ccc2ccccc2c1 | 16%
4 | – | – | – | – | – | O=C1c2ccccc2C(=O)N1c1cc(Cl)cc(Cl)c1 | < 10%
5 | – | – | – | – | – | O=C1c2ccccc2C(=O)N1c1ccc([N+](=O)[O-])c(C(F)(F)F)c1 | < 10%
6 | 15 µM | 45.6 µM | 45.2 µM | Active | – | CC(C)c1cccc(C(C)C)c1N1C(=O)c2cccc(O)c2C1=O | –
7 | – | – | – | – | – | Cc1cccc(C)c1N1C(=O)c2ccccc2C1=O | < 10%
8 | 7.24 µM | 3.94 µM | 2.07 µM | Active | – | CC(C)c1cccc(C(C)C)c1N1C(=O)c2ccc(N)cc2C1=O | –
9 | – | – | – | – | – | Cc1ccc(N2C(=O)c3ccccc3C2=O)cc1C | < 10%
10 | – | – | – | – | – | O=C1c2ccccc2C(=O)N1c1cc(Cl)ccc1Cl | < 10%
11 | – | – | – | – | – | O=C1c2ccccc2C(=O)N1c1ccc(Cl)c(Cl)c1 | < 10%
12 | 5.56 µM | 9.16 µM | 6.4 µM | – | – | CC(C)c1cccc(C(C)C)c1N1C(=O)c2ccc(C(=O)O)cc2C1=O | –
13 | – | – | – | – | – | O=C1c2ccccc2C(=O)N1c1c(Br)cccc1Br | 21.9%
14 | 29.2 µM | 45.9 µM | > 50 µM | – | Active | CCc1cccc(CC)c1N1C(=O)c2ccc(O)cc2C1=O | –
15 | 4.12 µM | 7.12 µM | 4.01 µM | – | – | CC(C)c1cccc(C(C)C)c1N1C(=O)c2ccccc2C1=O | –
16 | – | – | – | – | – | O=C1c2ccccc2C(=O)N1c1ccc(Cl)cc1Cl | < 10%
17 | 37.7 µM | > 50 µM | 38.3 µM | – | – | CC(C)c1cccc(C(C)C)c1N1C(=O)c2cccc([N+](=O)[O-])c2C1=O | –
18 | – | – | – | – | – | O=C1c2ccccc2C(=O)N1c1c(Cl)cccc1Cl | < 10%
19 | – | – | – | – | – | COc1ccc(N2C(=O)c3ccccc3C2=O)cc1OC | 10.2%
20 | 6.87 µM | 24.6 µM | 21.8 µM | – | – | COC(=O)c1ccc2c(c1)C(=O)N(c1c(C(C)C)cccc1C(C)C)C2=O | –
21 | – | – | – | – | – | O=C1c2ccccc2C(=O)N1c1c(F)cccc1F | < 10%
22 | 5.35 µM | 5.74 µM | 8.3 µM | Active | Active | CC(C)c1cccc(C(C)C)c1N1C(=O)c2ccc(O)cc2C1=O | > 90%
23 | > 50 µM | > 50 µM | > 50 µM | – | inactive | Cc1cccc(C)c1N1C(=O)c2ccc(O)cc2C1=O | –
24 | 4.85 µM | 6.62 µM | 8.02 µM | – | – | Cc1ccc2c(c1)C(=O)N(c1c(C(C)C)cccc1C(C)C)C2=O | –
25 | – | – | – | – | – | O=C1c2ccccc2C(=O)N1c1cccc2ccccc12 | < 10%
26 | > 50 µM | 15 µM | – | – | – | CC(C)c1cccc(C(C)C)c1N1C(=O)c2ccc([N+](=O)[O-])cc2C1=O | –
